Reference: PMC9258321, “Structure-guided design of CPPC-paired disulfide-rich peptide libraries for ligand and drug discovery” (Chemical Science, 2022)
Bridge positions count the residues as written; N and C are the ends. Square brackets hold non-standard residues; d marks the D form. Peptide text beside a SMILES is read from it. * marks the point of attachment. FITC = O=C1OC2(c3ccc(O)cc3Oc3cc(O)ccc32)c2ccc(NC(=S)*)cc21; βAla = NCCC(=O)O

Tests used:
[1] = tested on: MDM2; experiment: Fluorescence polarization (FP) competition assay, binding to MDM2; settings: FP competition assay described previously (ref 32 method); oxidized products; Fig. S3
Excerpt: The most abundantly enriched sequences from both selections were then synthesized, and their oxidative folding in redox buffers were examined using HPLC. Oxidation of the MDM2-binding peptide (drp2) yields two products (drp2-a and drp2-b) in a ratio of ∼1 : 3 (Fig. 2c). […] The structures of the two products were then characterized using NMR (Fig. 2c; PDB 7W8O and 7W8R). Both products can maintain a stable, but different 3D structure with a conserved α-helix responsible for target recognition, corresponding to the parallel and antiparallel dimeric pairing of the two CPPC motifs in the peptide (drp2-a and drp2-b, respectively). […]
min incubation at room temperature, the fluorescence anisotropies were measured using a plate reader (Eex= 485 nm, Eem=535 nm). All of the measurements were recorded in triplicate. In the fluorescence polarization assay s measuring the binding of reduced FITC-drp8 to CD28 and the binding of oxidized FITC-drp8 to CTLA-4, the fluorescence anisotrop ies were recorded in the same way as described above.
Dissociation constants ( KD) were determined by nonlinear regression analysis of anisotrop ies versus the concentrations of the protein using the following equation: […]
(b) Competition fluorescence polarization assay. The binding of drp8 to CD28 was measured by adding dilutions of drp8 to premixed oxidized FITC-drp8 and CD28 in PBS (pH 7.4). […]

[2] = target: T1, Keap1 (Homo sapiens, UniProt Q14145); experiment: Surface plasmon resonance (SPR) assay, affinity of peptides to Keap1; assay type: binding; settings: Biacore T200, 25 °C, biotinylated Keap1 on CAP chip, peptide 25-1600 nM, flow 30 μL/min, multi-cycle affinity method, oxidized, HPLC-purified peptide, read-out: equilibrium dissociation constant (KD) toward Keap1
T1 construct: another target (the Kelch domain of Keap1)
Description: Surface plasmon resonance (SPR) assay
The affinity of peptides to Keap1 was measured using Biacore T200 (GE healthcare) at 25℃. At first, Keap1 was linked to a Biacore CAP chip via the interaction of biotin and avidin (Biotinylation of Keap1 occurs through the preceding reaction, Biacore CAP chip was performed through a Biotin CAPture Kit (GE healthcare)). Then, different concentrations of peptides were used in experiment (25, 50, 100, 200, 400, 800, 1600 nM) at a flow rate of 30 μL/min. The binding affinity and kinetics constants were quanti-fied by a multi-cycle affinity method.
NMR samples were dissolved in 80% perdeuterated acetonitrile and 20% H2O for drp1, 75% perdeu-terated acetonitrile and […] for drp2-a, 60% perdeuterated acetonitrile and 40% H2O for drp8, 50% perdeuterated acetonitrile and 50% H2O for drp3 and drp6, 40% perdeuterated acetonitrile and 60% H2O for drp2-b and drp4 (The solution conditions depend on the dispersion of cross -peaks). All of NMR samples were prepared in a final concentration of about 1 mM. […] Two dimensional (2D) 1H, 15N/13C HSQC spectra were recorded to obtain chemical shifts of heavy atoms in backbone and side-chains. […]
The backbone dihedral angle restraints were obtained using programs TALOS -N based on chemical shifts of backbone resonances6. […] The structures were visualized in PyMol, and the quality of structures was analyzed using PROCHECK 9. […]

[3] = Circular dichroism (CD) thermal denaturation; assay type: physicochemical; settings: CD 190-260 nm, 61 μM in pure water, scans at 25, 45, 75 and 95 °C; only a small decline of CD signals up to 95 °C; Fig. S7
Excerpt: (§1) from 2% agarose gel (containing 0.005% v/v of 4S Red Plus Nucleic Acid Stain) used a commercial agarose gel purification kit (E.Z.N.A® Gel Extraction Kit, OMEGA BIO-TEK, USA). Then, Novogene Co., Ltd. was commissioned for sequence identification. The data were processed and analyzed using […]
(§2) All peptides were synthesized on a CEM Liberty Blue automated microwave peptide synthesizer by standard Fmoc solid-phase chemistry on a Rink Amide MBHA resin (0.025 mmol scale). Coupling reac-tions were performed with a Fmoc-AA-OH (5 eq., 0.2 M solution in DMF), DIC (5 eq., 0.25 M solution in DMF) and Oxyma Pure (5 eq., 1.0 M solution in DMF). Fmoc groups were removed using a 20% (v/v) solution of piperidine in DMF. […]
(§3) In a typical experiment, reduced peptide (50 μM) was dissolved in 100 mM phosphate buffer (500 μL, pH 7.4) containing 6 M Gu·HCl, 0.5 mM GSSG and 10% DMSO (v/v). […] After analyzed by MALDI-TOF MS, the oxidized peptide was purified and lyophilized to yield […]
(§4) Circular dichroism (CD) wavelength and temperature scans were recorded for thermal denaturation experiments. […] Wavelength scans from 190 nm to 260 nm were recorded at 25℃, 45℃, 75℃ and 95℃, and temperature were carried out at a heating rate of 5℃/min in 1 mm path length cuvettes.
(§5) Fluorescence polarization (FP) assay
(§6) (a) Fluorescence polarization binding assay. […]

[4] = target: T2, CD28 (Homo sapiens, UniProt P10747); experiment: Fluorescence polarization binding assay (saturation binding of FITC-drp8 to CD28); settings: FP assay, same way as for oxidized FITC-drp8
T2 construct: purchased Sino Biological 11524-HCCH
Excerpt: as §1
as §2, with “DMF).” for “DMF). Fmoc groups were removed using a 20% (v/v) solution of piperidine in DMF.”
as §3, §4, §5, §6
min incubation at room temperature, the fluorescence anisotropies were measured using a plate reader (Eex= 485 nm, Eem=535 nm). […]

T2 sequence (P10747 19-220): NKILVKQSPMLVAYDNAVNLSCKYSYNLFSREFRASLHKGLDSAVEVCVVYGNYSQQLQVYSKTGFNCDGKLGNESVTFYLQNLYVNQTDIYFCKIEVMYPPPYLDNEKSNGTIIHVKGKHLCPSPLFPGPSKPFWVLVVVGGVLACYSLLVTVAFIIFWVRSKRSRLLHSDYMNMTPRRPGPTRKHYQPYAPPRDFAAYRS
T1 sequence (Q14145 321-609 limits assumed, species assumed): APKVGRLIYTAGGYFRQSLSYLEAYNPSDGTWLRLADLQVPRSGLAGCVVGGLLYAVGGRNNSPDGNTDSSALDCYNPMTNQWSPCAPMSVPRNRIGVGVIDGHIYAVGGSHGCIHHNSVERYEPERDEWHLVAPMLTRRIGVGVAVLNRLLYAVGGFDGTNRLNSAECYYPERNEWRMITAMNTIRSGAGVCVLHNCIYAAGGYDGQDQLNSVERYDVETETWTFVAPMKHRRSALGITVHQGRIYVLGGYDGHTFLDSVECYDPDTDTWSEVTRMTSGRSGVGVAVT

In the case of “H-GCPPCESCHSGESTFWCYWEALCPPC-NH2 (also: bicyclic or more (positions not given here)) [drp2-a, oxidized product of drp2]”, the “affinity to MDM2 (in words)” value [1] is reported as “subnanomolar affinity”.
For `CC[C@H](C)[C@@H]1NC(=O)[C@H](CCC(=O)O)NC(=O)[C@@H]2CSSC[C@H](NC(=O)[C@H](CO)NC(=O)[C@H](CO)NC(=O)[C@H](C(C)C)NC(=O)[C@H](CCC(=O)O)NC(=O)[C@H](CCSC)NC(=O)[C@@H]3CSSC[C@H](NC(=O)[C@H](CCCNC(=N)N)NC(=O)[C@H](CO)NC(=O)CNC1=O)C(=O)N1CCC[C@H]1C(=O)N1CCC[C@H]1C(=O)N[C@H](C(N)=O)CSSC[C@H](NC(=O)[C@@H](N)Cc1c[nH]c4ccccc14)C(=O)N1CCC[C@H]1C(=O)N1CCC[C@H]1C(=O)N3)C(=O)N[C@@H](CC(=O)O)C(=O)N[C@@H](CCC(=O)O)C(=O)N[C@@H](CCC(=O)O)C(=O)N[C@@H]([C@@H](C)O)C(=O)NCC(=O)N[C@@H](CCC(=O)O)C(=O)N2` [drp6] (H-WCPPCMEVSSCDEETGECEIGSRCPPC-NH2; disulfide 2-27, 5-24, 11-18), the Kd [2] was 47 nM.
In the case of “H-SCPPCHGRPTCTKPGDNATPEKLAKYQACWELLTCPPC-OH (also: bicyclic or more (positions not given here)) [drp4, drp1 grafted with loop-α-helix fold of PPα-Tyr; recombinantly produced in E. coli as SUMO fusion]”, the “thermal stability of the 3D structure (CD signal)” value [3] is reported as “extremely stable to thermal treatment”.
For “{FITC}-[βAla]GCPPCPREHELVAVPCEGLNNCWFVEACPPC-NH2 (cysteine pairing not given here) [reduced drp8, reduced form of fluorescein-labeled drp8]”, the “binding of reduced labeled peptide to CD28 (in words)” value [4] was “negligible”.
